Measured values as given in PubChem BioAssay (NCI).
Values joined by “and” are separate entries in the source; they are usually repeats but may differ in a detail not shown here. Equal entries are not always repeated.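 Where inhibition never reached the appropriate level, the endpoint shown equals the highest concentration tested. Otherwise, values were interpolated linearly from a five-concentration, 48-hour dose response in 96-well plates. Abbreviation: GI50, concentration required for 50% inhibition of growth. TGI: total growth inhibition.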

Key:
Experiment in all cases: growth of human tumour cells (NCI), 48 h
SF-539 CNS = test system: SF-539 CNS
SK-OV-3 ovarian = test system: SK-OV-3 ovarian
KM12 colon = test system: KM12 colon
HT29 colon = test system: HT29 colon
HOP-92 NSCLC = test system: HOP-92 NSCLC
HS 578T breast = test system: HS 578T breast
LOX IMVI melanoma = test system: LOX IMVI melanoma
MOLT-4 leukemia = test system: MOLT-4 leukemia
PC-3 prostate = test system: PC-3 prostate
786-0 renal = test system: 786-0 renal

Row | SMILES | GI50 (SF-539 CNS) | TGI (SF-539 CNS) | GI50 (SK-OV-3 ovarian) | TGI (SK-OV-3 ovarian) | GI50 (KM12 colon) | TGI (KM12 colon) | GI50 (HT29 colon) | TGI (HT29 colon) | GI50 (HOP-92 NSCLC) | TGI (HOP-92 NSCLC) | GI50 (HS 578T breast) | TGI (HS 578T breast) | GI50 (LOX IMVI melanoma) | TGI (LOX IMVI melanoma) | GI50 (MOLT-4 leukemia) | TGI (MOLT-4 leukemia) | GI50 (PC-3 prostate) | TGI (PC-3 prostate) [µM] | GI50 (786-0 renal) | TGI (786-0 renal)
1 | O=C(NN1C(=O)CSC1c1ccc(F)cc1)C(O)c1ccccc1 (centres undefined) | > 100 µM | > 100 µM | > 100 µM | > 100 µM | > 100 µM | > 100 µM | > 100 µM | > 100 µM | > 100 µM | > 100 µM | > 100 µM | > 100 µM | > 100 µM | > 100 µM | > 100 µM | > 100 µM | 76.8 µM | > 100 | > 100 µM | > 100 µM
2 | CC(=O)O.CC(=O)O.CC(=O)O.CC(=O)O.[Rh].[Rh] | 26.4 µM | 88.4 µM | > 100 µM | > 100 µM | 34.8 µM | > 100 µM | 21.2 µM | 53.6 µM | 25.5 µM | 63.1 µM | 60.6 µM | > 100 µM | 17.2 µM | 61.9 µM | 22.6 µM | 47 µM | 27.1 µM | 91 | 34.8 µM | > 100 µM
3 | NS(=O)(=O)c1cccc(-c2ccc3c(NC(=O)C4CC4)n[nH]c3c2)c1 | 14.3 µM | > 25 µM | 9.16 µM | 23.6 µM | 11.3 µM | > 25 µM | > 14.4 µM | > 25 µM | > 25 µM | > 25 µM | 9.6 µM | > 25 µM | 19.4 µM | > 25 µM | 19.2 µM | > 25 µM | 15.6 µM | > 25 | 24.3 µM | > 25 µM
4 | Cc1cccc2c(Nc3ccc(NS(C)(=O)=O)cc3)c3ccc([N+](=O)[O-])cc3nc12 | 1.07 µM | 11.4 µM | 2.4 µM | 17.1 µM | 0.694 µM | 2.97 µM | 1.59 µM | 3.47 µM | 0.345 µM | 2.47 µM | 1.23 µM | 5.42 µM | 0.409 µM | 2.13 µM | 0.3 µM | 6.09 µM | 1.49 µM | 7.02 | 0.738 µM | 4.45 µM
5 | NC(=O)c1cccc(-c2cc(C(N)=O)ccc2Cl)c1 | 1.65 µM | 4.85 µM | 5.63 µM | > 100 µM | 1.88 µM | > 100 µM | 1.19 µM | > 100 µM | – | 6.99 µM | 2.59 µM | > 100 µM | 4.84 µM | > 100 µM | 2.22 µM | 95.7 µM | 3.03 µM | 40.9 | 5.37 µM | > 100 µM
6 | O=C1CSC(c2ccccc2O)N1c1nnc(Cn2ccnc2)o1 (centres undefined) | 8.83 µM | 68.5 µM | 27.6 µM | > 100 µM | 5.16 µM | > 100 µM | 5 µM | > 100 µM | 2.23 µM | 28.9 µM | 20.5 µM | > 100 µM | 6.58 µM | 24.8 µM | 5.23 µM | > 100 µM | 6.2 µM | 30.4 | 7.8 µM | > 100 µM
7 | COc1cccc(CC(C)=C(c2ccc(OCCCN(C)C)cc2)c2ccc(OCCCN(C)C)cc2)c1 | 0.437 µM | 0.801 µM | 4.04 µM | 7.57 µM | 0.628 µM | 1.54 µM | 0.443 µM | 0.912 µM | 0.747 µM | 3.79 µM | 0.527 µM | 1.34 µM | 0.428 µM | 0.807 µM | 0.502 µM | 1.11 µM | 0.693 µM | 2.46 | 0.416 µM | 0.771 µM
8 | O=C1CCC(N2C(=O)c3cccc(NCCCC4CCN(CCNC(=O)c5cc6c(o5)C(=O)c5ccccc5C6=O)CC4)c3C2=O)C(=O)N1 (centres undefined) | 1.32 µM | 2.59 µM | 2.88 µM | 8.52 µM | 1.29 µM | 3.97 µM | 0.823 µM | 8.81 µM | 3.51 µM | 15.1 µM | 1.95 µM | 6.9 µM | 0.288 µM | 1.13 µM | 1.93 µM | 13.8 µM | 0.976 µM | > 76.4 | 1.44 µM | 3.17 µM
9 | O=C(Nc1ccccc1Cl)c1cccc(NC2=C(Cl)C(=O)N(Cc3ccccc3)C2=O)c1 | 26.7 µM | 94.6 µM | > 100 µM | > 100 µM | 0.0371 µM | 9.86 µM | 19.8 µM | > 100 µM | 15 µM | > 100 µM | 30.2 µM | > 100 µM | 7.96 µM | > 100 µM | 2.52 µM | > 100 µM | 18.9 µM | 99 | 10.2 µM | 60.5 µM
10 | O=c1cccc(C#CC#CCCCO)o1 | 4.6 µM | > 43.5 µM | 18.5 µM | 45.4 µM | 0.834 µM | 9.26 µM | 4.66 µM | > 100 µM | 2.47 µM | 6.13 µM | 9.68 µM | 25.5 µM | 2.51 µM | > 27.9 µM | 4.82 µM | > 28.8 µM | 3.13 µM | > 22.8 | 5.27 µM | 14 µM
11 | C=C1CC[C@@H]2[C@](C)(COC(C)=O)[C@H](OC(C)=O)CC[C@@]2(C)[C@@H]1CC(Nc1ccc(S(=O)(=O)Nc2nccs2)cc1)C1=CCOC1=O (some centres undefined) | 2.35 µM | 6.31 µM | 14.4 µM | 27.8 µM | 7.58 µM | 21.7 µM | 2.17 µM | 4.7 µM | 12.4 µM | 25.3 µM | 10.8 µM | 60.4 µM | 1.59 µM | 3.31 µM | 3.68 µM | 73.2 µM | 7.74 µM | 21.5 | 2.55 µM | 6.74 µM
12 | C[C@H]1c2ccccc2CN1CCCOc1cc2c(cc1OCC1CC1)C1(CCCC1)C(N)=N2 | 0.922 µM | 1.89 µM | 4.84 µM | 10.7 µM | 2.03 µM | 7.69 µM | 1.05 µM | 2.67 µM | 0.633 µM | 3.54 µM | 1.74 µM | 9.44 µM | 0.845 µM | 1.57 µM | 1.4 µM | 4.93 µM | 1.69 µM | 7.6 | 2.06 µM | 8.2 µM
13 | Clc1ccccc1NN(Cc1ccncc1)c1ccccc1Cl | – | 36 µM | – | 44.9 µM | – | 36 µM | – | 26.1 µM | – | 18.2 µM | – | 48.6 µM | – | 30.3 µM | – | 33.9 µM | – | 28.9 | – | 26.6 µM
14 | Cc1oc2c(c1C(=O)N1CC[C@@H](N)C1)C(=O)c1c(c(O)c3ccccc3c1O)C2=O | 2.55 µM | 11.7 µM | 1.1 µM | 7.86 µM | 2.98 µM | 14.4 µM | 1.68 µM | 6.66 µM | 4.64 µM | 17.4 µM | 5.23 µM | 22.6 µM | 1.1 µM | 3.96 µM | 0.304 µM | 1.96 µM | 1.98 µM | 10.9 | 3.93 µM | 17.3 µM
15 | C=CCn1c(=O)c2cnc(Nc3ccc(N4CCN(C)CC4)cc3)nc2n1-c1cccc(C(C)(C)O)n1 | 0.161 µM and 0.287 µM | 2.3 µM and 1.15 µM | 0.251 µM and 0.237 µM | 8.08 µM and > 3.11 µM | 0.293 µM and 0.364 µM | 1.53 µM and 3.07 µM | 0.207 µM and 0.286 µM | 0.643 µM and > 3.82 µM | 0.131 µM and 0.221 µM | 3.92 µM and 2.38 µM | 0.894 µM and 0.471 µM | > 60 µM | 0.433 µM and 0.537 µM | 6.06 µM and > 7.93 µM | 0.348 µM and 0.333 µM | 18.1 µM and 4.26 µM | 1.41 µM and 1.06 µM | > 65.6 | 0.377 µM and 0.362 µM | 9.71 µM and > 10 µM
16 | Cn1nnc2c(C(N)=O)ncn2c1=O | – | > 100 µM | – | 100 µM | – | > 100 µM | – | > 100 µM | – | > 100 µM | – | > 100 µM | – | > 100 µM | – | > 100 µM | – | > 100 | – | > 100 µM
17 | CC1(C)CC2=C(Sc3ccccc3N2)C(=O)C1C(=O)C(=O)Nc1cc(Cl)ccc1Cl (centres undefined) | – | > 100 µM | – | > 100 µM | – | > 100 µM | – | > 100 µM | – | > 100 µM | – | > 100 µM | – | > 100 µM | – | > 100 µM | – | > 100 | – | > 100 µM
18 | C[C@@H]1COCCN1c1cc(-c2ccnn2C)c2ccnc(-c3ccn[nH]3)c2n1 | 0.0704 µM and 0.142 µM | 0.547 µM and 1.23 µM | 0.0928 µM and 0.215 µM | 0.732 µM and 2.06 µM | 0.176 µM and 0.171 µM | > 100 µM | 0.237 µM and 0.389 µM | 36.4 µM and > 100 µM | 0.0815 µM and 0.175 µM | 0.651 µM and 3.08 µM | 0.0994 µM and 0.291 µM | 0.643 µM and 2.06 µM | 0.0572 µM and 0.118 µM | 0.421 µM and 1.51 µM | 0.0319 µM and 0.0751 µM | 9.08 µM | 0.275 µM and 0.454 µM | > 100 | 0.0406 µM and 0.079 µM | 0.483 µM
19 | COc1cc(/C=C/[N+](=O)[O-])cc(OC)c1OC | 2.19 µM | 4.36 µM | 4.79 µM | 16.1 µM | 3.68 µM | 12.3 µM | 2.2 µM | 4.81 µM | 2.25 µM | 6.52 µM | 3.46 µM | 28.1 µM | 1.39 µM | 2.91 µM | 4.56 µM | 34.1 µM | 3.25 µM | 10.6 | 1.9 µM | 3.53 µM
20 | CCSc1nc(N)c(C#N)c(-c2ccco2)c1C#N | 23.3 µM | 69.3 µM | 53.3 µM | > 100 µM | 27.4 µM | > 100 µM | 56.4 µM | > 100 µM | 5.85 µM | 45.5 µM | 33.9 µM | > 100 µM | 17.1 µM | 37.1 µM | 51.9 µM | > 100 µM | 22.3 µM | > 100 | 39.6 µM | > 100 µM
21 | CC1=C(Cl)C[C@@H](/C(C)=C\Cl)O[C@@]1(O)C(Br)Br | – | > 100 µM | – | > 100 µM | – | > 100 µM | – | > 100 µM | – | 53.2 µM | – | > 100 µM | – | > 100 µM | – | > 100 µM | – | > 100 | – | > 100 µM
